20 compounds from ChEMBL document CHEMBL3259521, “Design, synthesis, and SAR of embelin analogues as the inhibitors of PAI-1 (plasminogen activator inhibitor-1)” (Bioorg Med Chem Lett, 2014) can be followed below.

A short description of experiment [1]: Inhibition of hexa-His-tagged PAI-1 N152H/K156T/Q321L/M356I mutant (unknown origin) expressed in Escherichia coli BL21(DE3) after 10 mins by uPA-based assay. Further details: species or system Homo sapiens.
For experiment [2], the species on record is Homo sapiens. As to the kind of experiment: Ratio of embelin IC50 to compound IC50 for hexa-His-tagged PAI-1 N152H/K156T/Q321L/M356I mutant (unknown origin) expressed in Escherichia coli BL21(DE3).
For experiment [3], the species on record is Homo sapiens. As to the kind of experiment: Inhibition of hexa-His-tagged PAI-1 N152H/K156T/Q321L/M356I mutant (unknown origin) expressed in Escherichia coli BL21(DE3) at 100 uM after 10 mins by uPA-based assay.

Active and inactive are the calls of the source. The calls are words filed in the database; no cut-off is given here.

Turning to `CCCC1=C(O)C(=O)C(CCC)=C(O)C1=O`, in experiment [1], the half-maximal inhibitory concentration (IC50) was found to be 5680 nM. In turn, `CCCCCCCCCC1=C(O)C(=O)C(CCC)=C(O)C1=O` returned an IC50 in experiment [1] of 380 nM. In addition, the Ratio IC50 in the experiment listed under Homo sapiens [2] amounted to 13. With `CCCCCCC1=C(O)C(=O)C=C(O)C1=O`, the IC50 in experiment [1] worked out at 4180 nM. Consider `CCCCCCCCC1=C(O)C(=O)C(CCCCCCCC)=C(O)C1=O`, for which the IC50 in experiment [1] is 890 nM. In the experiment listed under Homo sapiens [2], the Ratio IC50 was 5. The matching figures for `CCCCCC1=C(O)C(=O)C(CCCCC)=C(O)C1=O`: 920 nM and 5. The matching figures for `C=CCC1=C(O)C(=O)C(CCCCCCCCC)=C(O)C1=O`: 750 nM and 6.5. The matching figures for `CCCCCCCCCC1=C(O)C(=O)C(CCCCC)=C(O)C1=O`: 630 nM and 8.

Take `CCCCCCCCCC1=C(O)C(=O)C(CCCC)=C(O)C1=O`: in experiment [1], half-maximal inhibition (IC50) was put at 180 nM. Further, in the experiment listed under Homo sapiens [2], the Ratio IC50 is 27. The matching figures for `CCCCCCC1=C(O)C(=O)C(CCCCCC)=C(O)C1=O`: 580 nM and 9. In the case of `CCCCCCCCCC1=C(O)C(=O)C(Cc2ccccc2)=C(O)C1=O`, in experiment [1], half-maximal inhibition (IC50) was put at 770 nM. Further, the Ratio IC50 in the experiment listed under Homo sapiens [2] was 6.5. In experiment [1], `CCCCCCCC1=C(O)C(=O)C=C(O)C1=O` had an IC50 of 3870 nM. This counts as single-digit micromolar.

In experiment [1], `CCCCCCCCC1=C(O)C(=O)C=C(O)C1=O` returned a half-maximal inhibitory concentration (IC50) of 1870 nM. The same measure, in the same setting: under `CCCCCCCCCC1=C(O)C(=O)C=C(O)C1=O` stands 1780 nM. Take `CCCCCCCCCC1=C(O)C(=O)C(CCCCCCC)=C(O)C1=O`: the IC50 in experiment [1] stood at 950 nM. Moreover, the Ratio IC50 in the experiment listed under Homo sapiens [2] was 5. The matching figures for `CCCCCCCC1=C(O)C(=O)C(CCCCCCC)=C(O)C1=O`: 510 nM and 10. In the case of `CCCCCCCCCCCC1=C(O)C(=O)C=C(OC)C1=O` [5-O-METHYLEMBELIN], the 50% inhibitory concentration (IC50) in experiment [1] was found to be 90200 nM. Regarding `CCCCC1=C(O)C(=O)C(CCCC)=C(O)C1=O`, half-maximal inhibition in experiment [1] (IC50) required 7110 nM. Take `CCCCCCCCCCCC1=C(OC)C(=O)C=C(OC)C1=O`: in the experiment filed under Homo sapiens [3], the inhibition entry is “inactive”. For `CCCCCCCCCCCC1=C(O)C(=O)C=C(O)C1=O` [EMBELIN], the half-inhibitory concentration (IC50) in experiment [1] worked out at 4940 nM. This counts as single-digit micromolar. Take `CCCCCC1=C(O)C(=O)C=C(O)C1=O`: in experiment [1], the IC50 is 4560 nM.

For orientation: IC50 means the concentration at which inhibition is half-maximal. High values mean weaker potency in that assay, low ones greater potency in that assay.
